{
  "source": "patent US20220000971A1",
  "about": "“METHODS AND COMPOUNDS FOR TARGETING SORTILIN RECEPTORS AND INHIBITING VASCULOGENIC MIMICRY” (TRANSFERT PLUS, S.E.C., priority 2018, published 2022)",
  "key": {"[1]": {"test_system": "SK-Hep-1 hepatocellular carcinoma cells", "settings": "Curcumin 3-30 μM, dose-dependent; cited from earlier work"}, "[2]": {"target": "T1, P-glycoprotein (P-gp) efflux pump (Homo sapiens, UniProt P08183)", "T1 construct": "expressed in transfected cells; host or cells: MDCK-MDR1 cells", "T1 sequence (P08183 whole entry)": "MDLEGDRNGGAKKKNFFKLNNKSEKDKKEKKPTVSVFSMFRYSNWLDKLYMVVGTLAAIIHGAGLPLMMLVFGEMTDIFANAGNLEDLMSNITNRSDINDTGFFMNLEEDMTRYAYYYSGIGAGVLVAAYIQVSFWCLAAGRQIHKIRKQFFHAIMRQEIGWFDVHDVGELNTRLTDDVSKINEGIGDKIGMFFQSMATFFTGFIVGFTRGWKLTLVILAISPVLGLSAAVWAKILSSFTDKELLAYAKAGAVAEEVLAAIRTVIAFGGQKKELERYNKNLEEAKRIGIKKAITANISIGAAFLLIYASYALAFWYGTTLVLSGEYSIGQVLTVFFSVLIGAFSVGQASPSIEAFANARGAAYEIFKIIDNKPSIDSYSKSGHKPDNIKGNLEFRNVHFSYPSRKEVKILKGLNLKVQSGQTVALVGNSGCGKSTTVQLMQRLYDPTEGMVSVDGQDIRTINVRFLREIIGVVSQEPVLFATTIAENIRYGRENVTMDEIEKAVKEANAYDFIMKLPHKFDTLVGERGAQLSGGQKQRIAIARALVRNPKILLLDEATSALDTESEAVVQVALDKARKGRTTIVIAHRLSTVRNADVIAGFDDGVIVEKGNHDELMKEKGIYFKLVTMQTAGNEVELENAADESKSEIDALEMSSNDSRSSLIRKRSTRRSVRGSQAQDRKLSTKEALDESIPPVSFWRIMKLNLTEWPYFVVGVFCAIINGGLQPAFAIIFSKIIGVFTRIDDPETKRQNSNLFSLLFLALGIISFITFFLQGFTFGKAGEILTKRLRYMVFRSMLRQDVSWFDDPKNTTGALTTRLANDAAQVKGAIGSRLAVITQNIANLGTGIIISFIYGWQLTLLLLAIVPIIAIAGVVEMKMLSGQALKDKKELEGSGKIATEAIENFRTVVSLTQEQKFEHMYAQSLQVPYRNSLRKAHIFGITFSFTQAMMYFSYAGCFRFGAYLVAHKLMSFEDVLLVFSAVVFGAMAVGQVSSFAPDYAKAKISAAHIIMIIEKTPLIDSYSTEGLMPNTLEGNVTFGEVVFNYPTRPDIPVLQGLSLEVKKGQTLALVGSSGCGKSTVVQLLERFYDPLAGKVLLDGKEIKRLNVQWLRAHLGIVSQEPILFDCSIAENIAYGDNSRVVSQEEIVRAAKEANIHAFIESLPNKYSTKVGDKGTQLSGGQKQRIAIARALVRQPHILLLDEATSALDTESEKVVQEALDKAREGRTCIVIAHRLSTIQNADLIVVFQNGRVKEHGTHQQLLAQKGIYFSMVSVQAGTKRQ", "assay": "Uptake in MDCK-MDR1 cells overexpressing P-gp", "assay_type": "in vitro ADME", "settings": "with P-gp inhibitor Cyclosporin A"}, "[3]": {"test_system": "SKOV-3 ovarian cancer cell line", "assay": "Intracellular delivery (uptake) of DoxKA, SKOV-3", "assay_type": "cell-based", "settings": "Sortilin silencing or ligand competition", "description": "(§1) As a proof-of-concept, Doxorubicin was conjugated to a Sortilin binding peptide (KA-peptide). In vitro, intracellular delivery of the Doxorubicin-KA-peptide conjugate (DoxKA) KBB-106 represented by formula Acetyl-GVRAK(doxorubicin)AGVRN(Nle)FK(doxorubicin)SESY (Formula (XXVIII)) was assessed in ES-2 and SKOV-3 ovarian cancer cell line models using flow cytometry and fluorescent microscopy. Sortilin gene silencing was performed with specific siRNA. DoxKA efficacy and safety were evaluated in vivo using ES-2 (CD1 nude mice) and SKOV-3 (athymic mice) subcutaneous xenograft models."}, "[4]": {"test_system": "human ovarian tumor xenografts", "assay": "DoxKA efficacy and safety in ES-2 and SKOV-3 subcutaneous xenograft models", "assay_type": "in vivo, mice", "description": "as §1"}, "[5]": {"test_system": "ES-2 ovarian cancer cells", "assay": "In vitro vasculogenic mimicry, Matrigel tube formation assay (ES-2)", "assay_type": "cell-based, human", "settings": "for inhibition of 3D-tubular structures (vasculogenic mimicry): ES-2 seeded on Matrigel, increasing concentrations; for effect on vasculogenic mimicry inhibition caused by KBB106: competitor added to KBB106"}, "[6]": {"test_system": "ES-2 ovarian cancer cells", "assay": "Real-time cell migration, xCELLigence (ES-2)", "assay_type": "cell-based, human", "description": "(§2) In vitro vasculogenic mimicry of cancer cells was assessed using a Matrigel tube formation assay. In brief, each well of a 96-well plate was pre-coated with Matrigel. ES-2 ovarian cancer or MDA-MB-231 TNBC cell suspensions were seeded on top of Matrigel. 3D-tubular structures were analyzed and quantified using Wimasis Analysis software. Real-time cell migration was evaluated using the ×CELLigence system. Sortilin gene silencing was performed with specific siRNA. Effects of Doxorubicin-KA-peptide conjugate (DoxKA) KBA-106 represented by formula Acetyl-GVRAK(doxorubicin)AGVRN(Nle)FK(doxorubicin)SESY (Formula (XXVIII)) and Docetaxel-KA-peptide conjugate (DoceKA) represented by formula Acetyl-GVRAK(docetaxel)AGVRN(Nle)FK(docetaxel)SESY (Formula (XXIII)) targeting Sortilin on vasculogenic mimicry and cell migration were determined."}, "[7]": {"test_system": "MDA-MB-231 cells", "assay": "Real-time cell migration, xCELLigence (MDA-MB-231)", "assay_type": "cell-based", "description": "as §2\nMDA-MB-231 cells were used as a TNBC cell model for in vitro and in vivo xenograft (CD1 nude mice) assays. Cell migration was assessed using the ×CELLigence real-time system, whereas MTT assay was used for cell proliferation analysis. Apoptosis biomarkers expression was assessed by immunoblotting."}, "[8]": {"test_system": "ES-2 ovarian cancer cell line", "assay": "Intracellular delivery (uptake) of DoxKA, ES-2", "assay_type": "cell-based, human", "settings": "Sortilin silencing or ligand competition", "description": "as §1"}, "[9]": {"target": "T2, Sortilin receptor (Homo sapiens, UniProt Q99523)", "T2 construct": "endogenous in cells; host or cells: ES-2 human ovarian cancer cells", "T2 sequence (Q99523 78-831)": "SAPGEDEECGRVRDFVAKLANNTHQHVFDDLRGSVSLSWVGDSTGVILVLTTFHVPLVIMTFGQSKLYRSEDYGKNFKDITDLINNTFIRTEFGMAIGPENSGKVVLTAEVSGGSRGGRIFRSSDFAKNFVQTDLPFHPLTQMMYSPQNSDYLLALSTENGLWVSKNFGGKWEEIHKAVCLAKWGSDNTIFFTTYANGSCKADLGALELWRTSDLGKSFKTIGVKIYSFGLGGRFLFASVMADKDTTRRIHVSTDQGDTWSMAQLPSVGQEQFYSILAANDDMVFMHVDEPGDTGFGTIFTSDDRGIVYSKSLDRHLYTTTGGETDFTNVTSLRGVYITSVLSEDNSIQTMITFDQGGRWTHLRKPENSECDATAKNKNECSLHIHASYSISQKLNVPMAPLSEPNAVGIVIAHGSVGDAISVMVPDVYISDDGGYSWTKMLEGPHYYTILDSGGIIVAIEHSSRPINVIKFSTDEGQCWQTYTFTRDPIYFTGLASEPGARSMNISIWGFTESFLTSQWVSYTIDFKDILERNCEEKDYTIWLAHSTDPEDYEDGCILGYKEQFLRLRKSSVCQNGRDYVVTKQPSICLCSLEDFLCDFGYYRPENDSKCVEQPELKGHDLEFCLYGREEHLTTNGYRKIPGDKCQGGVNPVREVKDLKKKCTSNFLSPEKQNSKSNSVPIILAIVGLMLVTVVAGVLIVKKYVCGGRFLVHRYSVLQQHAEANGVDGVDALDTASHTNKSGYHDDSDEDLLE", "assay": "Cell surface binding assay with anti-Sortilin-Alexa488", "settings": "antibody 1 μg/ml, 30 minutes; ES-2 cells; competitor present", "method": "Labeling of anti-Sortilin antibody was performed with the Alexa Fluor 488 protein labeling kit from Invitrogen according to manufacturer's instructions."}, "[10]": {"test_system": "MDA-MB-231 cells", "assay": "Cell death / apoptosis (Annexin V-FITC/PI)", "assay_type": "cell-based", "settings": "SORT1 ligand competition", "method": "MDA-MB-231 cells treated for 5 hours with control (vehicle) or with increasing concentrations of Docetaxel or DoceKA. Cells were then harvested and the rate of apoptosis was determined following staining with Annexin V-FITC and propidium iodide (PI). Cells were analyzed by flow cytometry."}, "[11]": {"target": "T3, Sortilin receptor (human, UniProt Q99523 78-831)", "T3 construct": "whole, on cells; also called SORT1", "T3 sequence (looked up)": "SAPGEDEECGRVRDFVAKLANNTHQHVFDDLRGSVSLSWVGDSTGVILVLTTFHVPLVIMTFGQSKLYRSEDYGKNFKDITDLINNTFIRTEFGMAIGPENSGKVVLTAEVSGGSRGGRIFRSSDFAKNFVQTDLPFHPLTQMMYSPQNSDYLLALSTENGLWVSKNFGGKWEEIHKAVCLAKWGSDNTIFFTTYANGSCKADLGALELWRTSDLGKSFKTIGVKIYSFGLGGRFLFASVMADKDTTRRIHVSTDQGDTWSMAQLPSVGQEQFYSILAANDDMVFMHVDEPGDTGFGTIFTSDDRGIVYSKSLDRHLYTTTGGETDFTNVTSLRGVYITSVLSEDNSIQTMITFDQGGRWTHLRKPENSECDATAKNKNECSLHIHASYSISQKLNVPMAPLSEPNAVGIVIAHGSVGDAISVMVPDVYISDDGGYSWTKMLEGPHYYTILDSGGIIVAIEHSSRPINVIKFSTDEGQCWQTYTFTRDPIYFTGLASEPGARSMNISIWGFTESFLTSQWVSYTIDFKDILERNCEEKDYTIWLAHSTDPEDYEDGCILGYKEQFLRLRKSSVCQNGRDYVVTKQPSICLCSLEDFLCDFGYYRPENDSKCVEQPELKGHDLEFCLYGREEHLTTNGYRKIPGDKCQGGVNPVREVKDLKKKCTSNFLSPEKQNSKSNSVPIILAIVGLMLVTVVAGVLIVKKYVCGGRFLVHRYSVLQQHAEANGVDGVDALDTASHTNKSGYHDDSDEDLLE", "assay": "inferred from the vasculogenic mimicry assay of ES-2 cells, excess KBP106 against KBB106"}},
  "note": "Entries after “also recorded” stand apart in the source; their conditions may differ. Where a SMILES comes first, the peptide text is derived from it. Where no end group is shown, it is not given here. [ ]: non-standard residue; d: D form. The star is where a group is joined. X2 = COc1cccc2c1C(=O)c1c(O)c3c(c(O)c1C2=O)C[C@@](O)(C(=O)COC(=O)CC(C)(C)CC(=O)*)C[C@@H]3O[C@H]1C[C@H](N)[C@H](O)[C@H](C)O1; Nle = CCCC[C@H](N)C(=O)O",
  "data": [
    {"molecule": "COc1cc(/C=C/C(=O)CC(=O)/C=C/c2ccc(O)c(OC)c2)ccc1O", "note": "[Curcumin, diferuloylmethane]", "values": [
      {"measurement": "inhibition of tube formation", "setting": "[1]", "result": "18-92%"}
    ]},
    {"molecule": "CCCC[C@H](NC(=O)[C@H](CC(N)=O)NC(=O)[C@H](CCCNC(=N)N)NC(=O)[C@@H](NC(=O)CNC(=O)[C@H](C)NC(=O)[C@H](CCCCNC(=O)CC(C)(C)CC(=O)OCC(=O)[C@]1(O)Cc2c(O)c3c(c(O)c2[C@@H](O[C@H]2C[C@H](N)[C@H](O)[C@H](C)O2)C1)C(=O)c1c(OC)cccc1C3=O)NC(=O)[C@H](C)NC(=O)[C@H](CCCNC(=N)N)NC(=O)[C@@H](NC(=O)CNC(C)=O)C(C)C)C(C)C)C(=O)N[C@@H](Cc1ccccc1)C(=O)N[C@@H](CCCCNC(=O)CC(C)(C)CC(=O)OCC(=O)[C@]1(O)Cc2c(O)c3c(c(O)c2[C@@H](O[C@H]2C[C@H](N)[C@H](O)[C@H](C)O2)C1)C(=O)c1c(OC)cccc1C3=O)C(=O)N[C@@H](CO)C(=O)N[C@@H](CCC(=O)O)C(=O)N[C@@H](CO)C(=O)N[C@@H](Cc1ccc(O)cc1)C(=O)O", "note": "[DoxKA, Acetyl-GVRAK(doxorubicin)AGVRN(Nle)FK(doxorubicin)SESY] (Ac-GVRAK(X2)AGVRN[Nle]FK(X2)SESY-OH)", "values": [
      {"measurement": "uptake in P-gp overexpressing cells", "setting": "[2]", "result": "unaffected by the P-gp inhibitor Cyclosporin A"},
      {"measurement": "uptake", "setting": "[3]", "result": "reduced when Sortilin expression was specifically silenced or upon competition with the Sortilin ligands Neurotensin and Progranulin"},
      {"measurement": "inhibition of tumor xenografts growth compared to unconjugated Doxorubicin", "setting": "[4]; equivalent dose", "result": "more potent inhibition"},
      {"measurement": "tolerability compared to unconjugated Doxorubicin", "setting": "[4]; equivalent dose", "result": "better tolerated (absence of leukopenia and neutropenia)"},
      {"measurement": "accumulation in healthy tissues compared to Doxorubicin", "setting": "[4]; in vivo, heart and ovary", "result": "decreased accumulation in healthy tissues such as heart and ovary"},
      {"measurement": "concentration at which total number of loops and total tube length are inhibited", "setting": "[5]; ES-2 on Matrigel", "result": "inhibited at low nM concentrations"},
      {"measurement": "vasculogenic mimicry inhibition compared to unconjugated drug", "setting": "[5]; ES-2 on Matrigel, 12 hrs, equivalent concentration of free drug (Docetaxel 600 pM)", "result": "stronger inhibition of vasculogenic mimicry than unconjugated free drugs"},
      {"measurement": "inhibition of 3D-tubular structures (vasculogenic mimicry)", "setting": "[5]", "result": "strongly inhibited; also recorded: inhibited"},
      {"measurement": "inhibition of 3D-tubular structures (vasculogenic mimicry)", "setting": "[5]; listed as KBB106", "result": "vascukogenic mimicry inhibition"},
      {"measurement": "IC50 values for vasculogenic mimicry inhibition", "setting": "[5]; Example 2, ovarian cancer and TNBC cells", "result": "low nM to pM"},
      {"measurement": "cell migration", "setting": "[6]", "result": "inhibited"},
      {"measurement": "cell migration", "setting": "[7]", "result": "inhibited"},
      {"measurement": "uptake", "setting": "[8]", "result": "reduced when Sortilin expression was specifically silenced or upon competition with the Sortilin ligands Neurotensin and Progranulin"}
    ]},
    {"molecule": "Acetyl-GVRAKAGVRN(Nle)FKSESY (Ac-GVRAKAGVRN[Nle]FKSESY) [KBP106]", "values": [
      {"measurement": "effect on vasculogenic mimicry inhibition caused by KBB106", "setting": "[5]; ES-2", "result": "prevents vascukogenic mimicry inhibition by KBB106"},
      {"measurement": "effect of peptide alone on vasculogenic mimicry", "setting": "[5]; up to 50 μM, ES-2, 24 hours", "result": "no significant effect"},
      {"measurement": "effect on binding of anti-Sortilin-Alexa488 at the cell surface", "setting": "[9]", "result": "strongly reduced the binding"}
    ]},
    {"molecule": "Acetyl-GVRAKAGVRN(Nle)FKSESYC(aldoxorubicin) [AldoxKA]", "values": [
      {"measurement": "inhibition of 3D-tubular structures (vasculogenic mimicry)", "setting": "[5]", "result": "inhibited"}
    ]},
    {"molecule": "Acetyl-YKSLRRKAPRWDAPLRDPALRQLL (Ac-YKSLRRKAPRWDAPLRDPALRQLL) [KBP201]", "values": [
      {"measurement": "effect on binding of anti-Sortilin-Alexa488 at the cell surface", "setting": "[9]", "result": "strongly reduced the binding"}
    ]},
    {"molecule": "progranulin: Sortilin ligand [reference compound]", "values": [
      {"measurement": "effect on apoptotic and anti-migratory effects of DoceKA", "setting": "[10]", "result": "reversed"},
      {"measurement": "effect of Sortilin ligand alone on vasculogenic mimicry", "setting": "[5]; ES-2, 12 hours", "result": "do not effect vasculogenic mimicry"},
      {"measurement": "effect on vasculogenic mimicry inhibition caused by KBB106", "setting": "[5]; ES-2", "result": "reverses vasculogenic mimicry inhibition"},
      {"measurement": "effect on binding of anti-Sortilin-Alexa488 at the cell surface", "setting": "[9]", "result": "inhibited"}
    ]},
    {"molecule": "Ac-GVRAKAGVRN[Nle]FKSESY (also called Katana peptide; KA-peptide)", "note": "[KBP-106: Acetyl-GVRAKAGVRN(Nle)FKSESY]", "values": [
      {"measurement": "binding result", "setting": "[11]", "result": "binds"}
    ]}
  ]
}
